Assays:
Experiment in all cases: Test G pre/postemergence
Type in all cases: in vivo
[1] = system: guineagrass (Panicum maximum)
Procedure, shortened: (§1)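 Test chemicals in a non-phytotoxic solvent blend with surfactant are applied to soil after seeding or to foliage of 2–18 cm seedlings. Greenhouse response is scored visually at 12–21 days on a 0 to 100 control scale.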

[2] = system: common chickweed (Stellaria media)
Procedure, shortened: as §1

[3] = system: southern sandbur (Cenchrus echinatus)
Procedure, shortened: as §1

[4] = system: quackgrass (Elytrigia repens)
Procedure, shortened: as §1

[5] = system: downy bromegrass (Bromus tectorum)
Procedure, shortened: as §1

[6] = system: barnyardgrass (Echinochloa crus-galli)
Procedure, shortened: as §1

[7] = system: prickly sida (Sida spinosa)
Procedure, shortened: as §1

[8] = system: common groundsel (Senecio vulgaris)
Procedure, shortened: as §1

[9] = system: large crabgrass (Digitaria sanguinalis)
Procedure, shortened: as §1

[10] = system: common ragweed (Ambrosia elatior)
Procedure, shortened: as §1

[11] = system: itchgrass (Rottboellia cochinchinensis)
Procedure, shortened: as §1

[12] = Postemergence, 250 g ai/ha, scale 0 to 100
[13] = Postemergence, 16 g ai/ha, scale 0 to 100
[14] = Postemergence, 31 g ai/ha, scale 0 to 100
[15] = Postemergence, 62 g ai/ha, scale 0 to 100
[16] = Postemergence, 125 g ai/ha, scale 0 to 100
[17] = Preemergence, 16 g ai/ha, scale 0-100
[18] = Preemergence, 31 g ai/ha, scale 0-100
[19] = Preemergence, 62 g ai/ha, scale 0-100
[20] = Preemergence, 125 g ai/ha, scale 0-100
[21] = Preemergence, 250 g ai/ha, scale 0-100

SMILES: Nc1nc(C2CC2)nc(C(=O)OCc2ccccc2)c1Br [Compound 22, phenylmethyl 6-amino-5-bromo-2-cyclopropyl-4-pyrimidinecarboxylate]
- Plant response rating, Guineagrass [1, 12]: 100
- Plant response rating, Guineagrass [1, 13]: 5
- Plant response rating, Guineagrass [1, 14]: 55
- Plant response rating, Guineagrass [1, 15]: 65
- Plant response rating, Guineagrass [1, 16]: 95
- Plant response rating, Guineagrass [1, 17]: 0
- Plant response rating, Guineagrass [1, 18]: 35
- Plant response rating, Guineagrass [1, 19]: 75
- Plant response rating, Guineagrass [1, 20]: 90
- Plant response rating, Guineagrass [1, 21]: 95
- Plant response rating, Chickweed [2, 12]: 95
- Plant response rating, Chickweed [2, 14]: 50
- Plant response rating, Chickweed [2, 15]: 50
- Plant response rating, Chickweed [2, 16]: 85
- Plant response rating, Chickweed [2, 17]: 0
- Plant response rating, Chickweed [2, 18]: 50
- Plant response rating, Chickweed [2, 20]: 90
- Plant response rating, Chickweed [2, 21]: 100
- Plant response rating, Sandbur [3, 12]: 95
- Plant response rating, Sandbur [3, 13]: 0
- Plant response rating, Sandbur [3, 14]: 15
- Plant response rating, Sandbur [3, 15]: 40
- Plant response rating, Sandbur [3, 16]: 85
- Plant response rating, Sandbur [3, 17]: 0
- Plant response rating, Sandbur [3, 18]: 0
- Plant response rating, Sandbur [3, 19]: 0
- Plant response rating, Sandbur [3, 20]: 70
- Plant response rating, Sandbur [3, 21]: 85
- Plant response rating, Quackgrass [4, 12]: 85
- Plant response rating, Quackgrass [4, 13]: 15
- Plant response rating, Quackgrass [4, 14]: 40
- Plant response rating, Quackgrass [4, 15]: 65
- Plant response rating, Quackgrass [4, 16]: 75
- Plant response rating, Quackgrass [4, 17]: 0
- Plant response rating, Quackgrass [4, 18]: 0
- Plant response rating, Quackgrass [4, 19]: 20
- Plant response rating, Quackgrass [4, 20]: 20
- Plant response rating, Quackgrass [4, 21]: 30
- Plant response rating, Bromegrass, Downy [5, 12]: 95
- Plant response rating, Bromegrass, Downy [5, 13]: 15
- Plant response rating, Bromegrass, Downy [5, 14]: 65
- Plant response rating, Bromegrass, Downy [5, 15]: 85
- Plant response rating, Bromegrass, Downy [5, 16]: 95
- Plant response rating, Bromegrass, Downy [5, 17]: 0
- Plant response rating, Bromegrass, Downy [5, 18]: 0
- Plant response rating, Bromegrass, Downy [5, 19]: 0
- Plant response rating, Bromegrass, Downy [5, 20]: 20
- Plant response rating, Bromegrass, Downy [5, 21]: 75
- Plant response rating, Barnyardgrass [6, 12]: 85
- Plant response rating, Barnyardgrass [6, 13]: 0
- Plant response rating, Barnyardgrass [6, 14]: 0
- Plant response rating, Barnyardgrass [6, 15]: 15
- Plant response rating, Barnyardgrass [6, 16]: 25
- Plant response rating, Barnyardgrass [6, 17]: 10
- Plant response rating, Barnyardgrass [6, 18]: 20
- Plant response rating, Barnyardgrass [6, 19]: 30
- Plant response rating, Barnyardgrass [6, 20]: 70
- Plant response rating, Barnyardgrass [6, 21]: 80
- Plant response rating, Prickly Sida [7, 12]: 95
- Plant response rating, Prickly Sida [7, 13]: 75
- Plant response rating, Prickly Sida [7, 14]: 85
- Plant response rating, Prickly Sida [7, 15]: 90
- Plant response rating, Prickly Sida [7, 16]: 95
- Plant response rating, Prickly Sida [7, 17]: 50
- Plant response rating, Prickly Sida [7, 18]: 50
- Plant response rating, Prickly Sida [7, 19]: 65
- Plant response rating, Prickly Sida [7, 20]: 80
- Plant response rating, Prickly Sida [7, 21]: 95
- Plant response rating, Groundsel [8, 13]: 65
- Plant response rating, Groundsel [8, 14]: 65
- Plant response rating, Groundsel [8, 15]: 65
- Plant response rating, Groundsel [8, 16]: 85
- Plant response rating, Groundsel [8, 18]: 0
- Plant response rating, Groundsel [8, 21]: 50
- Plant response rating, Crabgrass, Large [9, 12]: 85
- Plant response rating, Crabgrass, Large [9, 13]: 15
- Plant response rating, Crabgrass, Large [9, 14]: 35
- Plant response rating, Crabgrass, Large [9, 15]: 50
- Plant response rating, Crabgrass, Large [9, 16]: 85
- Plant response rating, Crabgrass, Large [9, 17]: 0
- Plant response rating, Crabgrass, Large [9, 18]: 40
- Plant response rating, Crabgrass, Large [9, 19]: 40
- Plant response rating, Crabgrass, Large [9, 20]: 80
- Plant response rating, Crabgrass, Large [9, 21]: 80
- Plant response rating, Ragweed [10, 12]: 100
- Plant response rating, Ragweed [10, 13]: 65
- Plant response rating, Ragweed [10, 14]: 85
- Plant response rating, Ragweed [10, 15]: 98
- Plant response rating, Ragweed [10, 16]: 98
- Plant response rating, Ragweed [10, 17]: 65
- Plant response rating, Ragweed [10, 18]: 75
- Plant response rating, Ragweed [10, 19]: 90
- Plant response rating, Ragweed [10, 20]: 95
- Plant response rating, Ragweed [10, 21]: 100
- Plant response rating, Itchgrass [11, 12]: 85
- Plant response rating, Itchgrass [11, 13]: 15
- Plant response rating, Itchgrass [11, 14]: 25
- Plant response rating, Itchgrass [11, 15]: 50
- Plant response rating, Itchgrass [11, 16]: 75
- Plant response rating, Itchgrass [11, 17]: 0
- Plant response rating, Itchgrass [11, 18]: 0
- Plant response rating, Itchgrass [11, 19]: 20
- Plant response rating, Itchgrass [11, 20]: 40
- Plant response rating, Itchgrass [11, 21]: 65

Reference: patent US8802597B2, “Herbicidal pyrimidines” (E I du Pont de Nemours and Company, priority 2003, dated 2014)
